Test results from publication PMC9867151, “Anti-HIV Potential of Beesioside I Derivatives as Maturation Inhibitors: Synthesis, 3D-QSAR, Molecular Docking and Molecular Dynamics Simulations” (International Journal of Molecular Sciences, 2023).
Structures can show the parent of a compound that is named as a salt. Where two headings read alike, the source gives them in different places.

Experiments:
[1] = tested on: HIV-1NL4-3 Nanoluc-sec virus; assay: Anti-HIV assay: multicycle viral replication in MT4 cells, Nano-Glo luciferase readout; format: cell-based
Procedure: (§1) All of the synthetic derivatives were evaluated for anti-HIV activity by determining the inhibitory effects on virus replication in MT4 lymphocytes infected by HIV-1NL4-3 Nanoluc-sec virus. Cytotoxic activity tests were also carried out on MT4 cells.
In vitro activity was determined by a previously described HIV-1 infection assay. Briefly, a 96-well microtiter plate was used to set up the screening assay using MT4 cells infected by HIV-1NL4-3 Nanoluc-sec virus in the presence of various concentrations of derivatives. The viral replication thus can be monitored by measuring the luciferase activity using the Promega Nano-Glo Luciferase Assay System.

[2] = CellTiter-Glo Luminescent Cytotoxicity Assay; format: cell-based; settings: human, MT-4 cells (MT4 lymphocytes)
Procedure: as §1
(§2) The cytotoxicity of the synthesized derivatives was determined using the CellTiter-Glo® Luminescent Cytotoxicity Assay (Promega, Madison, WI, USA). MT-4 cells were cultured in the presence of various concentrations of the compounds for 3 days. The percentage of viable cells was measured by following the protocol provided by the manufacturer. The CC50 was derived using the Quest Graph™ IC50 Calculator (https://www.aatbio.com/tools/ic50-calculator, accessed on 7 October 2021).

MT4 cells = assay: CellTiter-Glo Luminescent Cytotoxicity Assay; format: cell-based; settings: MT-4 cells, 3 days
Procedure: as §1, §2

[3] = tested on: HIV-1NL4-3 Nanoluc-sec virus; settings: cited from earlier work
[4] = Human immunodeficiency virus 1, MT4, read-out: PEC50, actual value converted from EC50, 3D-QSAR dataset
[5] = Human immunodeficiency virus 1, MT4, 3D-QSAR dataset, actual values, entries matching the derivatives tested in this paper (Table 1)
[6] = 3D-QSAR dataset, actual values, ref activity data reported from our laboratory

| Compound | EC50 [1, 4] [µM] | EC50 [3, 6] [nM] | further results |
| --- | --- | --- | --- |
| CC(=O)O[C@H]1[C@@H](OC(C)=O)[C@@]2(C)C3CCC4C(C)(C)[C@@H](OC(=O)CC(C)(C)C(=O)OCc5ccccc5)CC[C@@]45C[C@@]35CC[C@@]23CO[C@@]2(C(C)(C)O)CC[C@](C)(O2)[C@@H]13 (stereo partly drawn) (as salt: succinate) [3b, (20S,24S)-15β,16β-Diacetoxy-18,24;20,24-diepoxy-9,19-cyclolanostane-3β,25-diol-3-O-4′-(benzyloxy) carbonyl-3′,3′-dimethylsuccinate] | – | – | melting point: 188 to 190 °C |
| CC(C)(CC(=O)O[C@H]1CC[C@]23C[C@]24CC[C@]25CO[C@@]6(C(C)(C)O)CC[C@](C)(O6)[C@H]2[C@@H](O)[C@@H](O)[C@@]5(C)C4CCC3C1(C)C)C(=O)O (stereo partly drawn) [3 ^a] | 0.12 | – | – |
| CC(=O)O[C@H]1[C@@H](OC(C)=O)[C@@]2(C)C3CCC4C(C)(C)[C@@H](OC(=O)CC(C)(C)C(=O)OCc5ccccc5)CC[C@@]45C[C@@]35CC[C@@]23CO[C@@]2(C(C)(C)O)CC[C@](C)(O2)[C@@H]13 (stereo partly drawn) [3b, (20S,24S)-15β,16β-Diacetoxy-18,24;20,24-diepoxy-9,19-cyclolanostane-3β,25-diol-3-O-4′-(benzyloxy) carbonyl-3′,3′-dimethylsuccinate] | – | – | EC50 ([1]; Human immunodeficiency virus 1, NL43, MT4, read-out: EC50 (μM) NL4-3, MT4 cells infected by HIV-1NL4-3 Nanoluc-sec virus, mean +/− SD of 3 tests): 0.28 µM; CC50 at 3 days [2]: > 20 µM |
| Cc1cn([C@H]2C[C@H](N=[N+]=[N-])[C@@H](CO)O2)c(=O)[nH]c1=O [AZT, reference compound] | – | – | EC50 ([1]; MT4 cells infected by HIV-1NL4-3 Nanoluc-sec virus, mean +/− SD of 3 tests, read-out: EC50 (μM) NL4-3): 0.024 ± 0.0045 µM; CC50 (MT4 cells): > 0.3 µM |
| CC(=O)OC1C2C3(C)CCC(C(C)(C)O)(OCC24CCC25CC26CCC(OC(=O)CC(C)(C)C(=O)O)C(C)(C)C6CCC5C4(C)C1OC(C)=O)O3 [DSC, (20S,24S)-15ꞵ,16ꞵ-diacetoxy-18,24; 20,24-diepoxy-9,19-cyclolanostane-3ꞵ,25-diol 3-O-3′,3′-dimethylsuccinate] | – | – | EC50 ([3]; anti-HIV, previous work): 25 nM |
| CC(=O)OC1C2C3(C)CCC(C(C)(C)O)(OCC24CCC25CC26CCC(OC(=O)CC(C)(C)C(=O)OCc2ccccc2)C(C)(C)C6CCC5C4(C)C1OC(C)=O)O3 (stereo not drawn) [compound 4] | 0.285 | – | EC50 [1, 5]: 0.285 µM |
| CC(=O)OC1C2C3(C)CCC(C(C)(C)O)(OCC24CCC25CC26CCC(OC(=O)CC(C)C(=O)O)C(C)(C)C6CCC5C4(C)C1OC(C)=O)O3 (stereo not drawn) [compound 6] | 1.11 | 1110 | – |
| CC(C)(CC(=O)OC1CCC23CC24CCC25COC6(C(C)(C)O)CCC(C)(O6)C2C(O)C(O)C5(C)C4CCC3C1(C)C)C(=O)OCc1ccccc1 (stereo not drawn) [compound 7] | 1.52 | – | EC50 [1, 5]: 1.52 µM |
| CC(=O)OC1C2C3(C)CCC(C(C)(C)O)(OCC24CCC25CC26CCC(OC(=O)CC2(CC(=O)O)CCCC2)C(C)(C)C6CCC5C4(C)C1OC(C)=O)O3 (stereo not drawn) [compound 8] | 1.59 | 1590 | – |
| CC(C)(CC(=O)OC1CCC23CC24CCC25COC6(C(C)(C)O)CCC(C)(O6)C2C(O)C(O)C5(C)C4CCC3C1(C)C)C(=O)O (stereo not drawn) [compound 9] | 1.79 | – | EC50 [1, 5]: 1.79 µM |
| CC(=O)OC1C2C3(C)CCC(C(C)(C)O)(OCC24CCC25CC26CCC(OC2OCC(O)C(O)C2O)C(C)(C)C6CCC5C4(C)C1OC(C)=O)O3 (stereo not drawn) [compound 10] | 2.32 | 2320 | – |
| CC(=O)OC1C2C3(C)CCC(C(C)(C)O)(OCC24CCC25CC26CCC(OC(C)=O)C(C)(C)C6CCC5C4(C)C1OC(C)=O)O3 (stereo not drawn) [compound 11] | 2.44 | 2440 | – |
| CC(=O)OC1C(O)C2C3(C)CCC(C(C)(C)O)(OCC24CCC25CC26CCC(OC2OCC(O)C(O)C2O)C(C)(C)C6CCC5C14C)O3 (stereo not drawn) [compound 13] | 4.85 | 4850 | – |
| CC12CCC(C(C)(C)O)(OCC34CCC56CC57CCC(OC5OCC(O)C(O)C5O)C(C)(C)C7CCC6C3(C)C(O)C(O)C14)O2 (stereo not drawn) [compound 14] | 7.62 | 7620 | – |
| beesioside I [compound 1] | – | 25 | PEC50 ([1]; actual value converted from EC50, 3D-QSAR dataset): 7.602 |
